Source: patent publication US8334261B2, “Osteopenia animal model” (Oriental Yeast Co., Ltd., priority 2006, dated 2012)

Columns and labels:
Format in all cases: in vivo, mouse
[1] = tested on: 7-week-old female C57BL/6N mice; test: Evaluation of a bone mass increase with PTH (GST-RANKL, ovariectomy)
Procedure: GST-RANKL was administered twice to groups of 7-week-old female C57BL/6N mice at 1 mg/kg every 24 hours. Ovariectomy was performed 24 hours after the 2nd administration. In addition, parathyroid hormone (PTH) was subcutaneously administered thereto at 160 μg/kg from 24 hours after the ovariectomy for 10 consecutive days. Further, a group obtained by PBS administration and sham operation (Sham) was designated as a control group for comparison. The serum markers and the femur bone density were measured.

[2] = tested on: GST-RANKL-administered 7-week-old female C57BL/6N mice; test: Evaluation of a bone mass increase with low-dose PTH in GST-RANKL mice
Procedure: GST-RANKL was intraperitoneally administered 2 times to groups of 7-week-old female C57BL/6N mice at 1 mg/kg every 24 hours. PTH was subcutaneously administered thereto at 40 or 80 μg/kg from 24 hours after the 2nd administration every 24 hours for 10 consecutive days. In addition, PBS was administered to a group serving as the control group for the GST-RANKL and PTH administration groups for comparison. The serum and femur were collected from each mouse 24 hours after the end of administration for 10 days.
The serum collected from each mouse was subjected to measurement of serum bone resorption markers (Ca and TRAP-5b) and an osteogenesis marker (ALP). Each femur was subjected to measurement of the total bone density, the cortical bone density, the cortical bone thickness, the cortical bone mineral content, and the cortical bone density in the diaphysis with pQCT at points 0.6, 0.8, and 1.0 mm […] the distal growth plate on the proximal side. In addition, image analysis was carried out with micro CT.

[3] = tested on: GST-RANKL-administered 7-week-old female C57BL/6N mice; test: as above; conditions: PTH 80 μg/kg; 1.0 mm

## parathyroid hormone [PTH]
[1]; PTH 160 μg/kg administered to the GST-RANKL+Sham group, p<0.05
  bone density decrease: significantly suppressed
[1]; PTH 160 μg/kg administered to the PBS+Sham group
  femur bone density: significantly increased exclusively at the 1.0-mm point
[1]; PTH 160 μg/kg in the OVX group
  femur bone density increase: no significant difference
[1]; every PTH administration group, 160 μg/kg s.c. 10 consecutive days
  serum TRAP-5b concentration, fold as high as the relevant group not treated with PTH: approximately 1.5 fold
[2]; PTH 40 μg/kg
  cortical bone density in the diaphysis, increase in GST-RANKL group: 3%
  serum ALP concentration in GST-RANKL group: tended to decrease
[2]; PTH 40 μg/kg, 0.6 mm
  cancellous bone density increase in GST-RANKL group vs PBS: 25%
  cortical bone mineral content increase in GST-RANKL group vs PBS: 80%
  cortical bone thickness increase in GST-RANKL group vs PBS: 86%
  total bone density increase in GST-RANKL group vs PBS: 14%
[2]; PTH 40 μg/kg, 0.8 mm
  cancellous bone density increase in GST-RANKL group vs PBS: 28%
  cortical bone density increase in GST-RANKL group vs PBS: 4%
  cortical bone mineral content increase in GST-RANKL group vs PBS: 123%
  cortical bone thickness increase in GST-RANKL group vs PBS: 127%
  total bone density increase in GST-RANKL group vs PBS: 17%
[2]; PTH 40 μg/kg, 1.0 mm
  cortical bone density increase in GST-RANKL group vs PBS: 5%
  cortical bone mineral content increase in GST-RANKL group vs PBS: 100%
  cortical bone thickness increase in GST-RANKL group vs PBS: 98%
  total bone density increase in GST-RANKL group vs PBS: 19%
[2]; PTH 80 μg/kg
  cortical bone density in the diaphysis, increase in GST-RANKL group: 3%
[2]; PTH 80 μg/kg, 0.6 mm
  cancellous bone density increase in GST-RANKL group: 20%
  cortical bone mineral content increase in GST-RANKL group: 46%
  cortical bone thickness increase in GST-RANKL group: 50%
  total bone density increase in GST-RANKL group: 10%
[2]; PTH 80 μg/kg, 0.8 mm
  cortical bone mineral content increase in GST-RANKL group: 83%
  cortical bone thickness increase in GST-RANKL group: 89%
  total bone density increase in GST-RANKL group: 13%
[2]; PTH 80 μg/kg, 1.0 mm
  cortical bone mineral content increase in GST-RANKL group: 77%
  cortical bone thickness increase in GST-RANKL group: 79%
  total bone density increase in GST-RANKL group: 13%
[2]; PTH 80 μg/kg, p<0.01
  serum ALP concentration in GST-RANKL group: significantly decreased
[2]; PTH 80 μg/kg, p<0.05
  serum Ca concentration in GST-RANKL group: slightly significant decrease
[2]; PTH 40 or 80 μg/kg s.c. 10 days
  serum TRAP-5b concentration: no significant changes
[3]
  cortical bone density increase in GST-RANKL administration group: 3%
